Results from article PMC6017357, “In Vitro Inhibitory Effects of Synthetic Cannabinoid EAM-2201 on Cytochrome P450 and UDP-Glucuronosyltransferase Enzyme Activities in Human Liver Microsomes” (Molecules : A Journal of Synthetic Chemistry and Natural …, 2018).

Molecular target: T1, CYP2A6 (Homo sapiens, UniProt P11509)
T1 construct: from tissue; host or cells: ultrapooled human liver microsomes
T1 sequence (P11509 1-494): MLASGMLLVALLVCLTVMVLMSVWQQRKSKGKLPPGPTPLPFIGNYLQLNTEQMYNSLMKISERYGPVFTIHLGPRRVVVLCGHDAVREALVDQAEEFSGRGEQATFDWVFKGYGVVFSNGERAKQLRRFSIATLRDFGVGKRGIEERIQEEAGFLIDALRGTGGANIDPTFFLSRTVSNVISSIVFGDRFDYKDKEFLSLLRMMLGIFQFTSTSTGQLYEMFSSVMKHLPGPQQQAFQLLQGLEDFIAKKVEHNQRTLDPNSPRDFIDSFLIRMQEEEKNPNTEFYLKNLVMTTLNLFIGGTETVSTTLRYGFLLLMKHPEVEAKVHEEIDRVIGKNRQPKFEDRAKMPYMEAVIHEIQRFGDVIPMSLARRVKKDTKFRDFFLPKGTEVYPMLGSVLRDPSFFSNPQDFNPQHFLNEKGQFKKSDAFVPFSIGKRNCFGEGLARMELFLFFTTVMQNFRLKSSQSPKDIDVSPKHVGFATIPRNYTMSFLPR
Assay: CYP2A6-mediated coumarin 7-hydroxylation in pooled human liver microsomes
Format: in vitro ADME
Settings: up to 50 µM, without 30-min preincubation
Procedure: The inhibitory potential (IC50 values) of EAM-2201 on CYP1A2, CYP2A6, CYP2C8, CYP2C9, CYP2C19, CYP2D6 and CYP3A4 were evaluated using ultrapooled human liver microsomes and a cocktail of seven CYP substrates followed by LC-tandem mass spectrometry (LC-MS/MS) as previously described. […] Aliquots (5 µL) of the diluted supernatants were analyzed using LC-MS/MS. […]
The metabolites formed from CYP substrates were simultaneously quantified using our previously described LC-MS/MS method. […] Quantification was performed by selected reaction monitoring (SRM) of the [M + H]^+ ion and the related product ion for each metabolite: acetaminophen, 152.1 > 110.3; N-desethylamodiaquine, 328.1 > 283.0; 7-hydroxycoumarin, 163.0 > 107.2; 4-hydroxybupropion, 256.1 > 238.0; 4′-hydroxydiclofenac, 312.0 > 231.1; 4′-hydroxy-mephenytoin, 235.1 > 150.1; 1′-hydroxybufuralol, 278.1 > 186.1; 1′-hydroxymidazolam, 341.9 > 324.0; ^13C2,^15N-acetaminophen, 155.1 > 111.2; and d9-1′-hydroxybufuralol, 287.2 > 187.0. […]

CCc1ccc(C(=O)c2cn(CCCCCF)c3ccccc23)c2ccccc12 [EAM-2201, (4-ethyl-1-naphthalenyl)[1-(5-fluoropentyl)-1H-indol-3-yl]-methanone]
inhibition of CYP2A6-mediated coumarin 7-hydroxylation: negligibly inhibited
